Among the data in US12162863B2, “Modulators of stimulator of interferon genes (STING)” (RYVU THERAPEUTICS S.A., priority 2018, dated 2024) are EC50 and ΔTm values, retold here.

The subject of assay [1] is interferon regulatory factor (IRF) pathway in THP-1 dual cells. The experiment in a line: THP-1 Dual Reporter Assay, IRF pathway (luciferase reporter). Type of assay: cell-based. The note with it: Homo sapiens, THP1-Dual, 18 h of stimulation, luminescence. A digest of the protocol: (§1)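 THP-1 dual cells stimulated 18 h with STING agonist; medium then sampled. IRF pathway: luciferase (ISG54 promoter/ISRE) read as luminescence immediately after reagent addition. NF-κB pathway: SEAP (IFN-β minimal promoter/NF-κB elements) developed 2 h at 37 °C, absorbance at 630 nm.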

Assay [2] deals with NF-κB pathway in THP-1 dual cells. The experiment in a line: THP-1 Dual Reporter Assay, NF-κB pathway (SEAP reporter). The note with it: Homo sapiens, THP1-Dual, 18 h of stimulation, absorbance at 630 nm, read-out: THP1 Dual EC50 (μM) NFkB. Type of assay: cell-based. A digest of the protocol:
as §1
Background: A reporter such as luciferase makes a cellular process visible.

The target in a further assay is human STING (Homo sapiens, UniProt Q86WV6). Description: Fluorescence Thermal Shift assay. Type of assay: binding. The note with it: 50 μM compound; STING 0.1 mg/ml; 20 minutes preincubation; read-out: [hSTING] FTS, ΔTm [° C.] for 50 μM. A digest of the protocol: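 Human STING at a final 0.1 mg/ml was preincubated with compound for 20 min in 50 mM Hepes, 150 mM NaCl, pH 7.5, then SyproOrange dye was added. Thermal unfolding ran from 25 to 99° C at 0.033° C/s, continuous ramp. Values are reported as ΔTm (° C).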
human STING, sequence (Q86WV6 whole entry H232R): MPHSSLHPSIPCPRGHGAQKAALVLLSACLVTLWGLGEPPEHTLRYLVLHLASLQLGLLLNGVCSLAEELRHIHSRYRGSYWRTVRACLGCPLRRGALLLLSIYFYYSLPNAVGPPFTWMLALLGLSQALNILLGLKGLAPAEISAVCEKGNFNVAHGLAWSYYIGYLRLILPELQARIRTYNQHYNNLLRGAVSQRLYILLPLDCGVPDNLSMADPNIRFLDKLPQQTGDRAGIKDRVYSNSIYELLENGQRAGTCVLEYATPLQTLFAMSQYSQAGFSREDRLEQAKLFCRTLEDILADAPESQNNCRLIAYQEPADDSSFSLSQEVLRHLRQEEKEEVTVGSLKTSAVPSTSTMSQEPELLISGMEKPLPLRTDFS

As to `O=c1c(CN(CCCc2cccnc2)Cc2ccncc2)coc2c1cc(F)c1ccccc12` [Example 54, 6-fluoro-3-({[3-(pyridin-3-yl)propyl][(pyridin-4-yl)methyl]amino}methyl)-4H benzo[h]chromen-4-one], the EC50 in assay [1] and in assay [2] was not above 10 µM throughout. Besides, the ΔTm at 50 µM at human STING was more than 2.5 °C.

On to `Cc1ccc2c(=O)c(CN(CCCc3cccnc3)Cc3ccncc3)c(C)oc2c1C` [Example 55, 2,7,8-trimethyl-3-({[3-(pyridin-3-yl)propyl][(pyridin-4-yl)methyl]amino}methyl)-4H-chromen-4-one], for which the concentration giving a half-maximal response (EC50) in assay [1] and in assay [2] was not above 10 µM each time. Also, on human STING, the ΔTm at 50 µM was more than 2.5 °C.

Consider `COc1ccc(-c2ccc3c(=O)c(CN(CCCn4ccnc4)Cc4ccncc4)c(C)oc3c2)cc1` [Example 56, 3-({[3-(1H-imidazol-1-yl)propyl][(pyridin-4-yl)methyl]amino}methyl)-7-(4-methoxyphenyl)-2-methyl-4H-chromen-4-one], for which the EC50 in assay [1] and in assay [2] was not above 10 µM each time. The ΔTm at 50 µM at human STING is more than 2.5 °C.

Turning to `COc1cccc(-c2cc3occ(CN(CCCn4ccnc4)Cc4ccncc4)c(=O)c3cc2F)c1` [Example 57, 6-fluoro-3-({[3-(1H-imidazol-1-yl)propyl][(pyridin-4-yl)methyl]amino}methyl)-7-(3-methoxyphenyl)-4H-chromen-4-one], the EC50 in assay [1] and in assay [2] was not below 20 µM each time. Besides, on human STING, the ΔTm at 50 µM is more than 2.5 °C.

Turning to `CN1CCN(c2cc3occ(CN(CCCc4cccnc4)Cc4ccncc4)c(=O)c3cc2F)CC1` [Example 58, 6-fluoro-7-(4-methylpiperazin-1-yl)-3-({[3-(pyridin-3-yl)propyl](pyridin-4-ylmethyl)amino}methyl)-4H-chromen-4-one], the EC50 in assay [1] and in assay [2] was not above 10 µM each time. Also, on human STING, the ΔTm at 50 µM was more than 2.5 °C.

For the compound `O=c1c(CN(CCCn2ccccc2=O)Cc2ccncc2)coc2c1ccc1ccccc12` [Example 59, 1-{3-[({4-oxo-4H-benzo[h]chromen-3-yl}methyl)[(pyridin-4-yl)methyl]amino]propyl}-1,2-dihydropyridin-2-one], the EC50 in assay [1] and in assay [2] was not above 10 µM each time. Also, the ΔTm at 50 µM on human STING was less than 2.5 °C.

For `CN(C)c1ccc(CCCN(Cc2ccncc2)Cc2coc3c(ccc4ccccc43)c2=O)cn1` [Example 60, 3-[({3-[6-(dimethylamino)pyridin-3-yl]propyl}[(pyridin-4-yl)methyl]amino)methyl]-4H-benzo[h]chromen-4-one], the EC50 in assay [1] and in assay [2] was not below 20 µM in each case. The thermal shift (ΔTm) at 50 µM at human STING is less than 2.5 °C.

On to `O=c1c(CN(CCCc2cncc3ccccc23)Cc2ccncc2)coc2c1ccc1ccccc12` [Example 61, 3-({[3-(isoquinolin-4-yl)propyl][(pyridin-4-yl)methyl]amino}methyl)-4H-benzo[h]chromen-4-one], for which the EC50 in assay [1] and in assay [2] was not below 20 µM in each case. Further, the ΔTm at 50 µM at human STING is less than 2.5 °C.

For `COc1ccc2ccc3c(=O)c(CN(CCCn4cnc5ccccc54)Cc4ccncc4)coc3c2c1` [Example 62, 3-({[3-(1H-1,3-benzodiazol-1-yl)propyl][(pyridin-4-yl)methyl]amino}methyl)-9-methoxy-4H-benzo[h]chromen-4-one], the EC50 in assay [1] and in assay [2] was not above 10 µM throughout. Moreover, the shift in melting temperature (ΔTm) at 50 µM at human STING was more than 2.5 °C.

`Cc1oc2cc(Br)c(F)cc2c(=O)c1CN(CCCc1cccnc1)Cc1ccncc1` [Example 63, 7-bromo-6-fluoro-2-methyl-3-({[3-(pyridin-3-yl)propyl][(pyridin-4-yl)methyl]amino}methyl)-4H-chromen-4-one]: the EC50 in assay [1] and in assay [2] was not above 10 µM each time. Besides, the ΔTm at 50 µM at human STING was more than 2.5 °C.

`Cc1oc2cc(Br)ccc2c(=O)c1CN(CCCc1cccnc1)Cc1ccncc1` [Example 64, 7-bromo-2-methyl-3-({[3-(pyridin-3-yl)propyl](pyridin-4-ylmethyl)amino}methyl)-4H-chromen-4-one]: the 50% effective concentration (EC50) in assay [1] and in assay [2] was not above 10 µM each time. The ΔTm at 50 µM on human STING is more than 2.5 °C.

For `Cc1oc2cc(N3CCN(C)CC3)c(F)cc2c(=O)c1CN(CCCc1cccnc1)Cc1ccncc1` [Example 65, 6-fluoro-2-methyl-7-(4-methylpiperazin-1-yl)-3-({[3-(pyridin-3-yl)propyl][(pyridin-4-yl)methyl]amino}methyl)-4-chromen-4-one], the EC50 in assay [1] and in assay [2] was not above 10 µM throughout. Besides, the ΔTm at 50 µM at human STING was more than 2.5 °C.

For `COc1ccc(CCCN(Cc2ccncc2)Cc2c(C)oc3c(C)c(C)ccc3c2=O)cn1` [Example 66, 3-({[3-(6-methoxypyridin-3-yl)propyl](pyridin-4-ylmethyl)amino}methyl)-2,7,8-trimethyl-4H-chromen-4-one], the EC50 in assay [1] and in assay [2] was not above 10 µM in each case. Further, the ΔTm at 50 µM at human STING was less than 2.5 °C.

Consider `Cc1oc2c(ccc3ccccc32)c(=O)c1CN(CCCn1ccnc1)Cc1ccncc1` [Example 67, 3-({[3-(1H-imidazol-1-yl)propyl][(pyridin-4-yl)methyl]amino}methyl)-2-methyl-4H-benzo[h]chromen-4-one], for which the EC50 in assay [1] and in assay [2] was not above 10 µM in each case. Besides, the ΔTm at 50 µM on human STING is more than 2.5 °C.

Take `O=c1c(CN(CCCn2cnc3ncccc32)Cc2ccncc2)coc2c1ccc1ccccc12` [Example 68, 3-{[(3-{1H-imidazo[4,5-b]pyridin-1-yl}propyl)(pyridin-4-ylmethyl)amino]methyl}-4H-benzo[h]chromen-4-one]: the EC50 in assay [1] and in assay [2] was not above 10 µM each time. Moreover, the ΔTm at 50 µM on human STING was more than 2.5 °C.

`Cc1oc2cc(N3CCNCC3)c(F)cc2c(=O)c1CN(CCCc1cccnc1)Cc1ccncc1` [Example 69, 6-fluoro-2-methyl-7-(piperazin-1-yl)-3-({[3-(pyridin-3-yl)propyl][(pyridin-4-yl)methyl]amino}methyl)-4H-chromen-4-one]: the EC50 in assay [1] and in assay [2] was not above 10 µM throughout. Moreover, the ΔTm at 50 µM on human STING was more than 2.5 °C.

With `Cc1oc2cc(N3CCOCC3)c(F)cc2c(=O)c1CN(CCCc1cccnc1)Cc1ccncc1` [Example 70, 6-fluoro-2-methyl-7-(morpholin-4-yl)-3-({[3-(pyridin-3-yl)propyl][(pyridin-4-yl)methyl]amino}methyl)-4H-chromen-4-one], the EC50 in assay [1] and in assay [2] was not above 10 µM throughout. Moreover, the ΔTm at 50 µM at human STING is more than 2.5 °C.

For the compound `O=c1c(CN(CCCn2ccnc2)Cc2ccncc2)coc2cc(-c3cc[nH]n3)ccc12` [Example 71, 3-({[3-(1H-imidazol-1-yl)propyl](pyridin-4-ylmethyl)amino}methyl)-7-(1H-pyrazol-3-yl)-4H-chromen-4-one], the EC50 was not above 10 µM in assay [1] and 10 to 20 µM in assay [2]. In addition, on human STING, the ΔTm at 50 µM is more than 2.5 °C.

For `CC(CCn1cnc2ccccc21)N(Cc1ccncc1)Cc1coc2c(ccc3ccccc32)c1=O` (stereo not drawn) [Example 72, 3-({[4-(1H-1,3-benzodiazol-1-yl)butan-2-yl](pyridin-4-ylmethyl)amino}methyl)-4H-benzo[h]chromen-4-one], the EC50 in assay [1] and in assay [2] was not above 10 µM throughout. In addition, the shift in melting temperature (ΔTm) at 50 µM at human STING is less than 2.5 °C.

As to `Cc1oc2cc(Br)c(F)cc2c(=O)c1CN(CCCn1cnc2cncnc21)Cc1ccncc1` [Example 73, 7-bromo-6-fluoro-2-methyl-3-({[3-(9H-purin-9-yl)propyl][(pyridin-4-yl)methyl]amino}methyl)-4H-chromen-4-one], the concentration for a half-maximal effect (EC50) in assay [1] was 10 to 20 µM; in assay [2], not above 10 µM. The ΔTm at 50 µM at human STING is more than 2.5 °C.

As to `O=c1c(CN(CCCn2ccnc2)Cc2ccncc2)c[nH]c2ccccc12` [Example 74, 3-({[3-(1H-imidazol-1-yl)propyl][(pyridin-4-yl)methyl]amino}methyl)-1,4-dihydroquinolin-4-one], the EC50 in assay [1] and in assay [2] was not below 20 µM each time. Moreover, the ΔTm at 50 µM at human STING is less than 2.5 °C.

With `Cc1ccc2c(=O)c(CN(CCCn3cnc4c(=O)[nH]cnc43)Cc3ccncc3)c(C)oc2c1C` [Example 75, 9-(3-{[(pyridin-4-yl)methyl][(2,7,8-trimethyl-4-oxo-4H-chromen-3-yl)methyl]amino}propyl)-6,9-dihydro-1H-purin-6-one], the figures for the EC50 in assay [1] and in assay [2] were not above 10 µM and 10 to 20 µM, respectively. For the same compound, the ΔTm at 50 µM at human STING is more than 2.5 °C.

`COc1cc2ncn(CCCN(Cc3ccncc3)Cc3coc4c(ccc5ccccc54)c3=O)c2cc1OC` [Example 76, 3-({[3-(5,6-dimethoxy-1H-1,3-benzodiazol-1-yl)propyl](pyridin-4-ylmethyl)amino}methyl)-4H-benzo[h]chromen-4-one]: the EC50 in assay [1] and in assay [2] was not above 10 µM throughout. Also, the ΔTm at 50 µM at human STING was more than 2.5 °C.

Consider `COc1cc(CN(CCCc2cccnc2)Cc2c(C)oc3cc(N4CCOCC4)c(F)cc3c2=O)ccn1` [Example 77, 6-fluoro-3-({[(2-methoxypyridin-4-yl)methyl][3-(pyridin-3-yl)propyl]amino}methyl)-2-methyl-7-(morpholin-4-yl)-4H-chromen-4-one], for which the EC50 in assay [1] and in assay [2] was not above 10 µM in each case. In addition, the shift in melting temperature (ΔTm) at 50 µM on human STING was less than 2.5 °C.

Broadly, the EC50 is the concentration giving half of the maximal effect. One may read the ΔTm as the shift of the melting midpoint relative to a reference.
